Assay results: publication PMC2771923 (Journal of medicinal chemistry, 2008)

Legend:
[1] = molecular target: PRWT (optimized wild-type HIV-1 PR) (Human immunodeficiency virus type 1 group M subtype B, UniProt P04585, C555A/C583A/L521I/L551I/Q495K)
PR dimers = details: fluorescent-tagged PR monomers; cited from earlier work
[2] = molecular target: PRV32I (V32I mutant HIV-1 PR) (Human immunodeficiency virus type 1 group M subtype B, UniProt P04585, C555A/C583A/L521I/L551I/Q495K/V520I)
HIV-1 PR = HIV-1 PR (Human immunodeficiency virus type 1 group M subtype B, UniProt P04585); details: cited from earlier work

Structure (SMILES)	γ (factor of γKi) [1]	δ (factor of δKi) [1]	inhibition of the formation of PR dimers (PR dimers)	γ (factor of γKi) [2]	δ (factor of δKi) [2]	affinity for HIV-1 PR (HIV-1 PR)	dissociation rate (HIV-1 PR)	type of inhibition [1]	type of inhibition [2]	Ki^uncomp (uncompetitive inhibition constant) ([1]; from intercept replots of Lineweaver-Burk plots)	γKi smaller compared to Ki^uncomp ([1]; ratio Ki^uncomp / γKi)
CC(C)CN(C[C@@H](O)[C@H](Cc1ccccc1)NC(=O)O[C@H]1CO[C@H]2OCC[C@H]21)S(=O)(=O)c1ccc(N)cc1 [DRV, darunavir]	1.2	0.5	inhibited the formation of PR dimers	1.7	0.3	exceptionally high affinity	greatly decreased dissociation rate				
CC(C)(C)NC(=O)[C@@H]1C[C@@H]2CCCC[C@@H]2CN1C[C@@H](O)[C@H](Cc1ccccc1)NC(=O)[C@H](CC(N)=O)NC(=O)c1ccc2ccccc2n1 [SQV, saquinavir]								purely competitive inhibition	purely competitive inhibition		
CC(C)CN(C[C@@H](O)[C@H](Cc1ccccc1)NC(=O)O[C@H]1CCOC1)S(=O)(=O)c1ccc(N)cc1 [APV, amprenavir]	0.22	0.23	absence of APV inhibition	0.45	0.28					28 nM	4.5 fold
